Assay [1] concerns the target T1, Calcium/calmodulin-dependent protein kinase type IV (Homo sapiens, UniProt Q16566).
T1 sequence (Q16566 whole entry): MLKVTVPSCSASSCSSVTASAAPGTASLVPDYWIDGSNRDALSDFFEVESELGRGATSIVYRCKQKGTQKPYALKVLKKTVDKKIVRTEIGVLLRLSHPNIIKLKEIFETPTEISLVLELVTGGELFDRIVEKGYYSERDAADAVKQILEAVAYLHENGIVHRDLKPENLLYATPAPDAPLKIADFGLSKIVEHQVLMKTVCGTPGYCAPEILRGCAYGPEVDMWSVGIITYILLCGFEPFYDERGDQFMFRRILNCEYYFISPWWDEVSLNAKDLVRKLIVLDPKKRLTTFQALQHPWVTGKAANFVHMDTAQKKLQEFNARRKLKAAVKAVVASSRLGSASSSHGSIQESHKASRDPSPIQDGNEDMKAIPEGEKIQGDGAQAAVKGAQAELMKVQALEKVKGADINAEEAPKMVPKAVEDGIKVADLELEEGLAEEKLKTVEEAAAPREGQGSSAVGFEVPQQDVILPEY

Assay [2] concerns the target Eukaryotic translation initiation factor 2-alpha kinase 1 (Homo sapiens, UniProt Q9BQI3).
In another assay the target is T2, Ephrin type-B receptor 2 (Homo sapiens, UniProt P29323).
T2 sequence (P29323 whole entry): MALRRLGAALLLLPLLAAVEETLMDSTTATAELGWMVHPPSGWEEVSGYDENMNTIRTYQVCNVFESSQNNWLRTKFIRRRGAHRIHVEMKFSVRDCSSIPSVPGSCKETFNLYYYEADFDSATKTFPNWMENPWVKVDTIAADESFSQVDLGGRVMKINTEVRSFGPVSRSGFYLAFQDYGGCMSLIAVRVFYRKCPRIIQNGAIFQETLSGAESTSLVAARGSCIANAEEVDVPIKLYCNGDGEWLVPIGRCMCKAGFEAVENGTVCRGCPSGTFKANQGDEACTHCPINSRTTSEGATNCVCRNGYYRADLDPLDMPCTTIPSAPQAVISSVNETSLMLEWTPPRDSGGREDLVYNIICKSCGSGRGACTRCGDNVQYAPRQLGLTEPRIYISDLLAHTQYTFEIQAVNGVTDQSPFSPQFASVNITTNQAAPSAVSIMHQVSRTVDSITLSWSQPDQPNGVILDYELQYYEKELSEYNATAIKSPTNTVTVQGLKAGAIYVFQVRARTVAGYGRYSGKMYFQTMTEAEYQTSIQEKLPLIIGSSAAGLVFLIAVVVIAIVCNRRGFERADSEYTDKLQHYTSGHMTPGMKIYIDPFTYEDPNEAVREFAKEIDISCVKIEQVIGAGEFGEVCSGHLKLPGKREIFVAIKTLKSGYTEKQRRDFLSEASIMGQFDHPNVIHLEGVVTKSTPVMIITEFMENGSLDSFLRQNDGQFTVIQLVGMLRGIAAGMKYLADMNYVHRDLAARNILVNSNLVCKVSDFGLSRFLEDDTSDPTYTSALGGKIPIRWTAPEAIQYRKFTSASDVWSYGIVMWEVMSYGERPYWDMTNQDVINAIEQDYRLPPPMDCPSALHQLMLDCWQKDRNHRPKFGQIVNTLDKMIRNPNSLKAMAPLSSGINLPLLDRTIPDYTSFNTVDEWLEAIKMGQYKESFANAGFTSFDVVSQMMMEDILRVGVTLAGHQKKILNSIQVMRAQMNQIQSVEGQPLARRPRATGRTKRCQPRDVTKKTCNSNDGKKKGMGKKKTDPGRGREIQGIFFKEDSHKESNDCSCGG

In assay [3] the target is Hepatocyte growth factor receptor (Homo sapiens, UniProt P08581).
Sequence of Hepatocyte growth factor receptor (P08581 whole entry, the tested form may be a part): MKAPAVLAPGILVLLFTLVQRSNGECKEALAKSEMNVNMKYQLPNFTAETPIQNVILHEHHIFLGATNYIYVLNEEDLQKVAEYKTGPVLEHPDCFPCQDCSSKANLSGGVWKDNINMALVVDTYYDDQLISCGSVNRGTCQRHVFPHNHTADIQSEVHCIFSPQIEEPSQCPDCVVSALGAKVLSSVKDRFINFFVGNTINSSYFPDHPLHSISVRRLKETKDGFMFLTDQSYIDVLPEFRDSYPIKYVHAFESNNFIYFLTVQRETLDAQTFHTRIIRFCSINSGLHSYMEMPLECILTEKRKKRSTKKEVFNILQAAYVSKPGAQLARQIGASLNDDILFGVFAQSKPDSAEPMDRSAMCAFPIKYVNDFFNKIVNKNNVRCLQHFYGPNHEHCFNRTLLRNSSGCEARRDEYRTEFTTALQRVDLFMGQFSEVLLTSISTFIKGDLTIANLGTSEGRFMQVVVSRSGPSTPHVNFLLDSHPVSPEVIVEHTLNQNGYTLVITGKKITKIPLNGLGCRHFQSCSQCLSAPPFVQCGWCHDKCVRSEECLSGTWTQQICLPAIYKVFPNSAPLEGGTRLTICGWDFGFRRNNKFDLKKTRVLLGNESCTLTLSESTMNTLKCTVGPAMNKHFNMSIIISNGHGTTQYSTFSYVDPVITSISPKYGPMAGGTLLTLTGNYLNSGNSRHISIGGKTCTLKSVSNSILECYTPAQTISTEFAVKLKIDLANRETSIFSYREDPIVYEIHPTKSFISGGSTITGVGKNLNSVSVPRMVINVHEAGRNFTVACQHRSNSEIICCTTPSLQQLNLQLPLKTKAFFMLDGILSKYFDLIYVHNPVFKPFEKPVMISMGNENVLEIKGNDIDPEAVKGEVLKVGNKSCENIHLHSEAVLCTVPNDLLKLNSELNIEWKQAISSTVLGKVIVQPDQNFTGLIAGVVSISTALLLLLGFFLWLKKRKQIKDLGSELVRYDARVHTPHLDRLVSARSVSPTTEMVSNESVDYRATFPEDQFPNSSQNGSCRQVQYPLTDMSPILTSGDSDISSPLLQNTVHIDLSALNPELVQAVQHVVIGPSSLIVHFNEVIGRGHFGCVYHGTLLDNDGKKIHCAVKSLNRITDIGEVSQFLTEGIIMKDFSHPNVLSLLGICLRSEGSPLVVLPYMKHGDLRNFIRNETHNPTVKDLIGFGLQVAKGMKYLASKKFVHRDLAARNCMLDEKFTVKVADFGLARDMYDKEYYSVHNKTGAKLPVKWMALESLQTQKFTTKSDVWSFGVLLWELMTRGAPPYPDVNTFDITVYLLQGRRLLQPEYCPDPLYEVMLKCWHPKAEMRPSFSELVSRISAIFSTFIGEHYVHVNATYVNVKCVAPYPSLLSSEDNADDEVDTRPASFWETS
The target of assay [4] is PAS domain-containing serine/threonine-protein kinase (Homo sapiens, UniProt Q96RG2).
Sequence of PAS domain-containing serine/threonine-protein kinase (Q96RG2 whole entry, the tested form may be a part): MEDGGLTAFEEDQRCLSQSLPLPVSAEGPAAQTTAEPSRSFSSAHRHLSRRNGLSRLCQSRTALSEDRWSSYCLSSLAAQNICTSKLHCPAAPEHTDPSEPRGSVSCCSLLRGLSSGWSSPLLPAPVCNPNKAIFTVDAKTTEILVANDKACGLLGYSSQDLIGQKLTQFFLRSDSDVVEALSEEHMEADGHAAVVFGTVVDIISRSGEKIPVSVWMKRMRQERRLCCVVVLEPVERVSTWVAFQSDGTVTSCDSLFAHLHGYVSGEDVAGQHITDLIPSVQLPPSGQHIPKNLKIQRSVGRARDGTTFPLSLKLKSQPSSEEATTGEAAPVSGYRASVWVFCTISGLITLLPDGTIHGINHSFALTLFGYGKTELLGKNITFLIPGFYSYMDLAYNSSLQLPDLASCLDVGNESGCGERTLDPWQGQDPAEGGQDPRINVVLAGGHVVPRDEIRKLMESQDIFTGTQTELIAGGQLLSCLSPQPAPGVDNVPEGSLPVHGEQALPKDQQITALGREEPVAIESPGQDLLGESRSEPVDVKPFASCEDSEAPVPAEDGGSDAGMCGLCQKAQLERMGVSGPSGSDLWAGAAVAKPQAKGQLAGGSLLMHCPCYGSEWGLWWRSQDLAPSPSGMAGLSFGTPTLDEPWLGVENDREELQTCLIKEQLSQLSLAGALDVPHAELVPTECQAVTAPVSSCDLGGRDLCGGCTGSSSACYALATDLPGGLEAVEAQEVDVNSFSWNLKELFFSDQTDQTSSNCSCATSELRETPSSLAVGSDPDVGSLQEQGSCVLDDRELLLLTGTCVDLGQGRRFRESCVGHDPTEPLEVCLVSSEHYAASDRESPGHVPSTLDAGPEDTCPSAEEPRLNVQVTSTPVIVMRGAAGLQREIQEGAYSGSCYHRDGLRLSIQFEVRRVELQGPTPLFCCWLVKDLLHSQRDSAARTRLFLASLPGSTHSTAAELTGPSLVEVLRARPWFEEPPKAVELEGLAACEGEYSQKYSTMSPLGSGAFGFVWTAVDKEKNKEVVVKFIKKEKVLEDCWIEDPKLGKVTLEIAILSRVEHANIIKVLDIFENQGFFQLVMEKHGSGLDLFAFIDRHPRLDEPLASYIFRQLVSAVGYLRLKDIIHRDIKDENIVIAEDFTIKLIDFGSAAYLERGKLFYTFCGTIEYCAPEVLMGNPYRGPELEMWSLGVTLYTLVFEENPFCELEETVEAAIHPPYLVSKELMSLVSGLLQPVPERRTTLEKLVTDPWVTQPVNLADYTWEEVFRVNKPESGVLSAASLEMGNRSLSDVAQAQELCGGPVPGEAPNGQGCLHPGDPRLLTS
For assay [5], the target named is Platelet-derived growth factor receptor beta (Homo sapiens, UniProt P09619).
Sequence of Platelet-derived growth factor receptor beta (P09619 whole entry): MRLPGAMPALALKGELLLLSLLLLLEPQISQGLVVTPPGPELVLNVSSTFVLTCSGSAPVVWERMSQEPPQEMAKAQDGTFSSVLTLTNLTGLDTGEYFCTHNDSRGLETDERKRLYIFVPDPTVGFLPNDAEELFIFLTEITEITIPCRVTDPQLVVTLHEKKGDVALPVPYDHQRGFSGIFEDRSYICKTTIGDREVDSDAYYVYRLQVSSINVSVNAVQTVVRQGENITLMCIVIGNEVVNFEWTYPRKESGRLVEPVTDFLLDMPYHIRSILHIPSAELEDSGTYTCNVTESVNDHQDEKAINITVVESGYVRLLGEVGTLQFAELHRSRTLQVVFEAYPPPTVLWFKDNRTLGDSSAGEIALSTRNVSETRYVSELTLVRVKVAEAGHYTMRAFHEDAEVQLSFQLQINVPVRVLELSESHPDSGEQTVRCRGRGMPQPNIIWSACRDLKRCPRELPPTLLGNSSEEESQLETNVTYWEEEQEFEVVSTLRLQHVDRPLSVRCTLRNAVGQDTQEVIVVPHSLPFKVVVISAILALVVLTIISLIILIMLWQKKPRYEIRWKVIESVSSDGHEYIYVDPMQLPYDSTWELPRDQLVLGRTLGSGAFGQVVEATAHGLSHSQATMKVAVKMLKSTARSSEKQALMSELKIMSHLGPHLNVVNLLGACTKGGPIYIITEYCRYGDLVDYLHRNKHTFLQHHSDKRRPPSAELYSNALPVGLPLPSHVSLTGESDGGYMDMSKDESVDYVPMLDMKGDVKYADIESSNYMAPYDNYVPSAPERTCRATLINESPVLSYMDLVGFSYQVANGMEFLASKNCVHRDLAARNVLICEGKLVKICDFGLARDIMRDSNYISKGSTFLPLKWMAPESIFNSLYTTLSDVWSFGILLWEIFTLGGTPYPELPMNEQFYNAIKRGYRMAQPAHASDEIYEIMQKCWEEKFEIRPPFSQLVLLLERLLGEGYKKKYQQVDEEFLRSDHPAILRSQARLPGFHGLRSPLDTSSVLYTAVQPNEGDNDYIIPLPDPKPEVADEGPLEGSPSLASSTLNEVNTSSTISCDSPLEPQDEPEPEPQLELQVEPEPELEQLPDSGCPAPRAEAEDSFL
The target of assay [6] is T3, Signal recognition particle receptor subunit alpha (Homo sapiens, UniProt P08240).
T3 sequence (P08240 whole entry): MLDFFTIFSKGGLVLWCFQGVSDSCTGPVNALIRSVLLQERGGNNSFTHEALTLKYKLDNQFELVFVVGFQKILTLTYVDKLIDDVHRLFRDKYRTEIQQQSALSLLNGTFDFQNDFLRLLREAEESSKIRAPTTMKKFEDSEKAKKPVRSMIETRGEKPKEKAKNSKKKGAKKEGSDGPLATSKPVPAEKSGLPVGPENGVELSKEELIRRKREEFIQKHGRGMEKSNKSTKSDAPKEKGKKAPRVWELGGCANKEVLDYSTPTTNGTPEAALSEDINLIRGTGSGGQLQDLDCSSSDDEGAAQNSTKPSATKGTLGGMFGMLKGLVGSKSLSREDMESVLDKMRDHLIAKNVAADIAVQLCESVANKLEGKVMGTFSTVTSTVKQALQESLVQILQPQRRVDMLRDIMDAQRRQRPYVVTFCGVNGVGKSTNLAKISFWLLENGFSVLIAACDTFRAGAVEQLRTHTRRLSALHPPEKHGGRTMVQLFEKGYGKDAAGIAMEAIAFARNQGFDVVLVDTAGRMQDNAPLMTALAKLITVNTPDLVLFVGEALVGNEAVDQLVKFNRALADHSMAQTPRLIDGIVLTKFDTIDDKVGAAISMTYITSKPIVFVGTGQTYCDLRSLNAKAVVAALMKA

Assay [7] deals with Elongation factor Tu, mitochondrial (Homo sapiens, UniProt P49411).
For the next assay, the target named is T4, Scaffold protein ILK (Homo sapiens, UniProt Q13418).
T4 sequence (Q13418 whole entry): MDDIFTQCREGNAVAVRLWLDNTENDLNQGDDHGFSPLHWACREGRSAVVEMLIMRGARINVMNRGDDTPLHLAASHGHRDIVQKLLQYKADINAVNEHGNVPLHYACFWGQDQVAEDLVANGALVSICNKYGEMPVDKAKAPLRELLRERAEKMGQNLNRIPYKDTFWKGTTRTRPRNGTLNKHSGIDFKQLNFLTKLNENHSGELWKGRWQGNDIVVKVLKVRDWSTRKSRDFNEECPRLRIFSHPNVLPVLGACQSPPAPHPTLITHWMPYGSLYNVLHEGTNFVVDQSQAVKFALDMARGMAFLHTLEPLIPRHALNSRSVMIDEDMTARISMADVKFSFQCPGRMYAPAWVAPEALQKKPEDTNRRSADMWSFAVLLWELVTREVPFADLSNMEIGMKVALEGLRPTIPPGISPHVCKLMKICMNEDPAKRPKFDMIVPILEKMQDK

Activity calls are given as the source filed them. For most assays here, no stated cut-off is given here; in the data, actives have a measured Kd and inactives only a lower limit.

By Kd is commonly meant the equilibrium constant for the complex coming apart.

Sequence of Eukaryotic translation initiation factor 2-alpha kinase 1 (Q9BQI3 whole entry): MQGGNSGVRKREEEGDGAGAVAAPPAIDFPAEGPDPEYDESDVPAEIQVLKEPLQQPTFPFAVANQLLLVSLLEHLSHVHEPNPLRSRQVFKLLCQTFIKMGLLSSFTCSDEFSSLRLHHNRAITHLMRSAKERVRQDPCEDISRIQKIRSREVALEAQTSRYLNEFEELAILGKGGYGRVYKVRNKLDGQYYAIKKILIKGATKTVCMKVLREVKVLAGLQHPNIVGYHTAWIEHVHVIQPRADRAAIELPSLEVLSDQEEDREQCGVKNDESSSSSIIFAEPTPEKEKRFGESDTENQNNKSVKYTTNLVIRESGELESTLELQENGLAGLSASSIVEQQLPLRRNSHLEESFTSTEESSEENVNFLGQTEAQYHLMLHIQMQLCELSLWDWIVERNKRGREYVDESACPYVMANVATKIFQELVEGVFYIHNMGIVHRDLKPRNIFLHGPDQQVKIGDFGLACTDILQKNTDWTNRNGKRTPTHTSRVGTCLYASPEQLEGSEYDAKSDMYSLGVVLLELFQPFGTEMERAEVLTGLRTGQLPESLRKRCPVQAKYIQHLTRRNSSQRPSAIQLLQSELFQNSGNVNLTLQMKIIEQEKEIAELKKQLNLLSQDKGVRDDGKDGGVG

For the compound `CC(=O)c1cnc2ccc(-c3cc(Cl)c(O)c(Cl)c3)nc2c1N[C@H]1CC[C@H](CN(C)C)CC1`, the Kd is > 30 µM (inactive) in assay [1]; > 30 µM (inactive) in assay [2]; 0.149 µM (active) on Ephrin type-B receptor 2; > 30 µM (inactive) in [3]; > 30 µM (inactive) in assay [4]; 0.103 µM (active) in [5]. In addition, the Kd in assay [6] and in [7] was > 30 µM (inactive) each time.

`C=CC(=O)N1CCC[C@H](n2c(=O)n(-c3ccc(Oc4ccccc4)cc3)c3c(N)ncnc32)C1`: the Kd (in assay [1]; in assay [2]; on Ephrin type-B receptor 2; at Scaffold protein ILK; in assay [3]; in [4]) was > 30 µM (inactive) throughout. The Kd in assay [5], in assay [6] and in assay [7] was > 30 µM (inactive) in each case.

With `COCc1c(-c2ccc(NC(=O)Nc3cc(C(F)(F)F)ccc3F)c(F)c2)c2c(N)ncnn2c1CN1CCOCC1`, the Kd (in assay [1]; in assay [2]; on Ephrin type-B receptor 2; at Scaffold protein ILK; in [3]; in assay [4]) was > 30 µM (inactive) throughout. Also, the Kd in assay [5], in [6] and in [7] was > 30 µM (inactive) in each case.

In the case of `NC(=O)Nc1cc(-c2cccc(F)c2)sc1C(=O)N[C@H]1CCCNC1` [AZD-7762], the Kd (in assay [1]; in assay [2]; on Ephrin type-B receptor 2; on Scaffold protein ILK; in assay [3]; in assay [4]) was > 30 µM (inactive) throughout. Moreover, the values for the Kd in assay [5], in [6] and in assay [7] were 0.552 µM (active), > 30 µM (inactive) and > 30 µM (inactive), respectively.

Consider `Cn1cnc2c(F)c(Nc3ccc(Br)cc3F)c(C(=O)NOCCO)cc21` [BINIMETINIB], for which the Kd (in assay [1]; in [2]; at Ephrin type-B receptor 2; at Scaffold protein ILK; in [3]; in assay [4]) was > 30 µM (inactive) in each case. The Kd in assay [5], in assay [6] and in [7] was > 30 µM (inactive) each time.

On to `COc1c(OCCCN2CCOCC2)ccc2c1N=C(NC(=O)c1cnc(N)nc1)N1CCN=C21` [COPANLISIB], for which the Kd (in [1]; in assay [2]; at Ephrin type-B receptor 2; on Scaffold protein ILK; in [3]; in [4]) was > 30 µM (inactive) in each case. Besides, the Kd in [5], in [6] and in [7] was > 30 µM (inactive) in each case.

Regarding `C#Cc1cccc(Nc2ncnc3cc(OC)c(OCCCCCCC(=O)NO)cc23)c1` [CUDC-101], the Kd (in [1]; in assay [2]; at Ephrin type-B receptor 2; at Scaffold protein ILK; in assay [3]; in assay [4]) was > 30 µM (inactive) each time. Further, the Kd in assay [5], in [6] and in assay [7] was > 30 µM (inactive) in each case.

For the compound `Cc1nc(Nc2n[nH]c3c2CN(C(=O)N[C@H](CN(C)C)c2ccccc2)C3(C)C)c2sccc2n1` [PF-03758309], the Kd is 0.408 µM (active) in assay [1]; > 30 µM (inactive) in assay [2]; > 30 µM (inactive) at Ephrin type-B receptor 2; > 30 µM (inactive) in [3]; > 30 µM (inactive) in [4]; 29.7 µM in assay [5]. Moreover, the Kd in assay [6] and in [7] was > 30 µM (inactive) in each case.

On to `CNC(=O)c1cc(Oc2ccc(NC(=O)Nc3cc(C(C)(C)C)nn3-c3ccc4ncccc4c3)c(F)c2)ccn1` [REBASTINIB], for which the Kd in assay [1] was > 30 µM (inactive); at Ephrin type-B receptor 2, > 30 µM (inactive); on Scaffold protein ILK, > 30 µM (inactive); in assay [3] it was 0.126 µM (active); in [4] it was > 30 µM (inactive); in assay [5], > 30 µM (inactive). The Kd in [6] and in assay [7] was > 30 µM (inactive) throughout.

For `Cn1cc(-c2cnn3c(N)c(Br)c([C@@H]4CCCNC4)nc23)cn1` [SCH-900776], the Kd (in assay [1]; in [2]; on Ephrin type-B receptor 2; in assay [3]; in [4]; in assay [5]) was > 30 µM (inactive) each time. Moreover, the Kd in [6] and in assay [7] was > 30 µM (inactive) in each case.

For `C[C@@H](NC(=O)c1ncnc(N)c1Cl)c1ncc(C(=O)Nc2cc(C(F)(F)F)c(Cl)cn2)s1` [TOVORAFENIB], the Kd (in assay [1]; in assay [2]; on Ephrin type-B receptor 2; on Scaffold protein ILK; in assay [3]; in assay [4]) was > 30 µM (inactive) each time. Besides, the equilibrium dissociation constant (Kd) in assay [5] is 11.1 µM (active); in assay [7], > 30 µM (inactive).

Take `CC(C)c1cc(CNc2nc(Nc3cc(C4CC4)[nH]n3)cc(N3CCN(C)CC3)n2)on1` [XL-228]: the Kd in [1] is > 30 µM (inactive); on Ephrin type-B receptor 2, 2.51 µM (active); at Scaffold protein ILK, > 30 µM (inactive); in assay [3] it was > 30 µM (inactive); in assay [4] it was > 30 µM (inactive); in [5], > 30 µM (inactive). In addition, the Kd in assay [6] and in assay [7] was > 30 µM (inactive) in each case.

These data come from ChEMBL document CHEMBL3991601, “The target landscape of clinical kinase drugs” (Science, 2017).
